The values that follow come from ChEMBL document CHEMBL4483862, “Open-source discovery of chemical leads for next-generation chemoprotective antimalarials” (2018).

This assay deals with Plasmodium berghei. Briefly: Luciferase/luciferin-expressing antifolate-resistant parasites were used to infect a culture of HepG2 cells that were pre-incubated with compounds. Infected hepatocytes emit light due to the luciferase reaction. Assay results are presented as the percent inhibition of light emission compared to control. […]. Type of assay: functional. As to conditions: sporozoite; for IC90: read-out: LUCIFERASE INFECTION ASSAY - IC90.

[1] abbreviates: read-out: LUCIFERASE INFECTION ASSAY - IC50.

Regarding `Cc1ccc(NC(=O)COCc2nc3ccccc3s2)cc1S(=O)(=O)Nc1ccccc1F`, the concentration for an effect of 90% (IC90) (as a rule, the concentration needed for an effect of 90%) was above 10 µM. Further, the concentration for half-maximal inhibition (IC50) (as a rule, the concentration needed to halve the response being measured) (HEPG2TOX_HILL_SLOPE 2.14, HEPG2TOX_R_SQUARED 0.975, PBLUC_HILL_SLOPE 2, PBLUC_R_SQUARED 0.573, read-out: LUCIFERASE INFECTION ASSAY - IC50) was 4.27 µM.

In the case of `COc1ccc(NC(=O)c2ccc(-n3cnc4ccccc43)cc2)cc1Cl`, the IC90 was above 10 µM. Moreover, the IC50 under setting [1] is 8.58 µM.

As to `CCN(c1ccccc1)S(=O)(=O)c1cc(NC(=O)Nc2ccccc2C#N)ccc1Cl`, the 90% effect concentration (IC90) is above 10 µM. In addition, where the note is “PBLUC_HILL_SLOPE 14.4, PBLUC_R_SQUARED 0.0813, read-out: LUCIFERASE INFECTION ASSAY - IC50”, the half-inhibitory concentration (IC50) was above 10 µM.

Take `CCN(C(=O)CSc1nnc(SCC(=O)N(CC)C2CCCCC2)s1)C1CCCCC1`: the IC90 was above 10 µM. For the same molecule, the IC50 under setting [1] is above 10 µM.

Take `CN(CC1COc2ccccc2O1)c1ccc(C#N)cn1` (centres undefined): the IC90 is above 10 µM. The IC50 (HEPG2TOX_HILL_SLOPE 3.52, HEPG2TOX_R_SQUARED 0.623, PBLUC_HILL_SLOPE 1.89, PBLUC_R_SQUARED 0.914, read-out: LUCIFERASE INFECTION ASSAY - IC50) came out at 5.89 µM.

In the case of `CC(=O)c1cccc(-c2cnc3ccc(-c4cccc(Cl)c4)nn23)c1`, the IC90 came out at 8.63 µM. The half-inhibitory concentration (IC50) (HEPG2TOX_HILL_SLOPE 0.743, HEPG2TOX_R_SQUARED 0.718, PBLUC_HILL_SLOPE 1.63, PBLUC_R_SQUARED 0.591, read-out: LUCIFERASE INFECTION ASSAY - IC50) was 2.24 µM.

On to `Cc1ccc2nc(NC(=O)c3ccc(C(F)(F)F)cc3)c(C(=O)NC3CCCC3)n2c1`, for which the IC90 came to 1.95 µM. The IC50 under setting [1] was 0.593 µM.

In the case of `COc1ccc(OCCCC(=O)N(c2nc3ccccc3s2)c2cc(C(F)(F)F)ccc2Cl)cc1`, the IC90 was above 10 µM. For the same molecule, the IC50 under setting [1] was above 10 µM.

`O=C(NNC(=O)c1cccn1-c1ccc(F)cc1)Nc1ccc(Cl)c(Cl)c1`: the IC90 amounted to 7.62 µM. In addition, for the setting “PBLUC_HILL_SLOPE 3.35, PBLUC_R_SQUARED 0.178, read-out: LUCIFERASE INFECTION ASSAY - IC50”, the IC50 is 3.96 µM.

For `CNc1snc(C)c1C(=O)OCc1csc(-c2ccccc2)n1`, the IC90 was determined as 1.26 µM. Moreover, under “HEPG2TOX_HILL_SLOPE 0.385, HEPG2TOX_R_SQUARED 0.759, PBLUC_HILL_SLOPE 1.19, PBLUC_R_SQUARED 0.693, read-out: LUCIFERASE INFECTION ASSAY - IC50”, the IC50 turned out to be 0.2 µM.

Take `Cc1ccc(Sc2ncccc2C(=O)Nc2nc3c(s2)CCCC3)cc1`: the IC90 stood at 3.95 µM. Under setting [1], the IC50 was 3.38 µM.

As to `O=C1C=CC(=O)N1Cc1ccccc1`, the 90% effect concentration (IC90) is above 17.6 µM. The IC50 (HEPG2TOX_HILL_SLOPE 16.7, HEPG2TOX_R_SQUARED 0.468, read-out: LUCIFERASE INFECTION ASSAY - IC50) was above 17.6 µM.

In the case of `C=c1ccccc1=C1NN=C(Sc2cnn(-c3ccc(C(F)(F)F)cn3)c(=O)c2Cl)N1CC`, the IC90 is 5.32 µM. Further, the IC50 (HEPG2TOX_HILL_SLOPE 11.7, 13.0, HEPG2TOX_R_SQUARED 0.881, 0.478, PBLUC_HILL_SLOPE 8.47, PBLUC_R_SQUARED 0.136, read-out: LUCIFERASE INFECTION ASSAY - IC50) is 4.11 µM.

`COc1ccc(Nc2nccc3c2cc(-c2ccccc2OC)n3C)c(OC)c1`: the IC90 amounted to 8.07 µM. For the same molecule, the 50% inhibitory concentration (IC50) (PBLUC_HILL_SLOPE 3.43, PBLUC_R_SQUARED 0.599, read-out: LUCIFERASE INFECTION ASSAY - IC50) was 4.25 µM.

As to `CNc1nc2cnc(-c3cccc4ccccc34)cc2n1-c1ccccc1`, the IC90 was above 10 µM. The IC50 (PBLUC_HILL_SLOPE 1.54, PBLUC_R_SQUARED 0.64, read-out: LUCIFERASE INFECTION ASSAY - IC50) came out at 4.99 µM.

For `COC(=O)Cc1cc(=O)nc(SCC(=O)c2cc(C)n(-c3ccc(C(C)C)cc3)c2C)[nH]1`, the IC90 was above 10 µM. Also, under setting [1], the IC50 is above 10 µM.

`COc1ccc(Cl)cc1C(=O)NNC(=O)CSc1nccn1-c1ccc(C)c(C)c1`: the concentration for an effect of 90% (IC90) was 6.58 µM. Under “PBLUC_HILL_SLOPE 46.1, PBLUC_R_SQUARED 0.54, read-out: LUCIFERASE INFECTION ASSAY - IC50”, the IC50 came to 6.27 µM.

Consider `O=C(NCc1ccccn1)c1nn(CCc2ccccc2)c2c1CN(Cc1cccc3c1OCO3)CC2`, for which the 90% effect concentration (IC90) was above 6.66 µM. Besides, the 50% inhibitory concentration (IC50) (PBLUC_HILL_SLOPE 2.34, PBLUC_R_SQUARED 0.543, read-out: LUCIFERASE INFECTION ASSAY - IC50) turned out to be 5.68 µM.

Take `CC(=O)c1c(C)[nH]c(C(=O)OCC(=O)Nc2ccccc2C(F)(F)F)c1C`: the IC90 was above 10 µM. The IC50 (HEPG2TOX_HILL_SLOPE 0.401, HEPG2TOX_R_SQUARED 0.713, read-out: LUCIFERASE INFECTION ASSAY - IC50) is above 10 µM.

As to `CCCCSc1scc(-c2ccc(Cl)c(Cl)c2)c1C#N`, the IC90 is above 9.64 µM. Also, under “HEPG2TOX_HILL_SLOPE 94.8, HEPG2TOX_R_SQUARED 0.896, read-out: LUCIFERASE INFECTION ASSAY - IC50”, the IC50 is above 9.64 µM.

With `Cc1ccccc1-c1ccc(CN2CCC3(CC2)C(=O)N(Cc2cccnc2)C(=O)N3C)cc1`, the IC90 stood at 2.76 µM. Also, the half-inhibitory concentration (IC50) under setting [1] was determined as 2.36 µM.

In the case of `CC1C/C(=C/c2ccc(Cl)cc2)C2=NN(C(=O)c3ccc4ncccc4c3)C(c3ccc(Cl)cc3)C2C1` (centres undefined), the IC90 is 6.04 µM. Further, under “FFLUC_HILL_SLOPE 1.77, FFLUC_R_SQUARED 0.609, HEPG2TOX_HILL_SLOPE 4.89, HEPG2TOX_R_SQUARED 0.557, PBLUC_HILL_SLOPE 71.4, PBLUC_R_SQUARED 0.509, read-out: LUCIFERASE INFECTION ASSAY - IC50”, the IC50 came to 5.86 µM.

With `Cc1ccc2c(c1)C1CN(C)CCC1N2C(=O)c1sc2ccccc2c1Cl` (centres undefined), the IC90 came to 6.62 µM. Moreover, the concentration for half-maximal inhibition (IC50) (PBLUC_HILL_SLOPE 14.0, 2.64, PBLUC_R_SQUARED 0.410, 0.165, read-out: LUCIFERASE INFECTION ASSAY - IC50) stood at 3.64 µM.

Turning to `COc1ccc(/C=C2\CCCC3C2=NN(C(=O)Cn2cc(C(F)(F)F)ccc2=O)C3c2ccc(OC)cc2)cc1` (centres undefined), the IC90 was 8.1 µM. For the same molecule, where the note is “PBLUC_HILL_SLOPE 4.26, PBLUC_R_SQUARED 0.126, read-out: LUCIFERASE INFECTION ASSAY - IC50”, the half-maximal inhibitory concentration (IC50) turned out to be 4.84 µM.

On to `Cc1ccc(-c2nc(-c3ccccc3)nc(N3CCN(C)CC3)c2C#N)cc1`, for which the concentration for an effect of 90% (IC90) was above 8.93 µM. Besides, under “HEPG2TOX_HILL_SLOPE 0.407, HEPG2TOX_R_SQUARED 0.712, PBLUC_HILL_SLOPE 0.491, PBLUC_R_SQUARED 0.261, read-out: LUCIFERASE INFECTION ASSAY - IC50”, the IC50 is above 8.93 µM.

Consider `Oc1ccc(Cl)cc1/C=N/Nc1cccc(C(F)(F)F)c1`, for which the concentration for an effect of 90% (IC90) was above 10.5 µM. For the same molecule, the concentration for half-maximal inhibition (IC50) (HEPG2TOX_HILL_SLOPE 5.54, HEPG2TOX_R_SQUARED 0.477, read-out: LUCIFERASE INFECTION ASSAY - IC50) is above 10.5 µM.

Regarding `O=c1nc(-c2ccc(Cl)cc2)oc2ccccc12`, the IC90 was found to be 10.8 µM. Moreover, the IC50 (PBLUC_HILL_SLOPE 3.1, PBLUC_R_SQUARED 0.539, read-out: LUCIFERASE INFECTION ASSAY - IC50) amounted to 5.33 µM.

On to `COc1ccc(C(C)(C)C)cc1NC(=O)c1ccc(Cl)c(S(=O)(=O)N2CCc3ccccc32)c1`, for which the IC90 was above 10 µM. Moreover, the IC50 (FFLUC_HILL_SLOPE 21.6, FFLUC_R_SQUARED 0.0861, HEPG2TOX_HILL_SLOPE 0.0233, HEPG2TOX_R_SQUARED 0.0468, PBLUC_HILL_SLOPE 7.45, PBLUC_R_SQUARED 0.387, read-out: LUCIFERASE INFECTION ASSAY - IC50) came to 8.38 µM.

Take `CSc1sc(C(=O)NNC(=O)Nc2ccccc2)c2c1C=CCC2`: the IC90 was above 9.18 µM. In addition, the IC50 (FFLUC_HILL_SLOPE 1.34, FFLUC_R_SQUARED 0.714, read-out: LUCIFERASE INFECTION ASSAY - IC50) is above 9.18 µM.

For the molecule `c1ccc(-c2cc3c(Nc4ccccn4)nccc3[nH]2)cc1`, the 90% effect concentration (IC90) was above 10 µM. Besides, under setting [1], the 50% inhibitory concentration (IC50) is above 10 µM.

As for `O=C1CCCN1c1ccc(C2=NNC(=NC3CC3)SC2)cc1`, the IC90 stood at 0.932 µM. Moreover, for the setting “FFLUC_HILL_SLOPE 1.46, FFLUC_R_SQUARED 0.93, PBLUC_HILL_SLOPE 0.517, PBLUC_R_SQUARED 0.899, read-out: LUCIFERASE INFECTION ASSAY - IC50”, the concentration for half-maximal inhibition (IC50) stood at 0.0133 µM.

Turning to `CCc1c2c(nc3sc(C(=O)Nc4nsc(-c5ccccc5)n4)c(N)c13)CC(C)(C)CC2=O`, the 90% effect concentration (IC90) was above 10 µM. The IC50 (PBLUC_HILL_SLOPE 1.15, PBLUC_R_SQUARED 0.361, read-out: LUCIFERASE INFECTION ASSAY - IC50) amounted to 6.36 µM.

Consider `O=C1C=CC(=O)N1c1ccc(Cl)c(Cl)c1`, for which the IC90 is above 13.6 µM. The IC50 (FFLUC_HILL_SLOPE 16.6, FFLUC_R_SQUARED 0.832, read-out: LUCIFERASE INFECTION ASSAY - IC50) is above 13.6 µM.

Consider `Cc1nn(-c2ccccc2)c(C)c1C(=O)Nc1nc2c(s1)CCCC2`, for which the IC90 turned out to be 4.22 µM. Besides, the IC50 (HEPG2TOX_HILL_SLOPE 2.86, HEPG2TOX_R_SQUARED 0.355, PBLUC_HILL_SLOPE 1.92, 0.823, PBLUC_R_SQUARED 0.870, 0.934, read-out: LUCIFERASE INFECTION ASSAY - IC50) is 0.574 µM.

As for `CN(C)CCNC(=O)c1cccc(-c2cnc3ccc(-c4ccc(F)cc4)nn23)c1`, the IC90 was above 10 µM. Besides, the IC50 (HEPG2TOX_HILL_SLOPE 10.3, HEPG2TOX_R_SQUARED 0.505, PBLUC_HILL_SLOPE 2.09, PBLUC_R_SQUARED 0.253, read-out: LUCIFERASE INFECTION ASSAY - IC50) was 4.88 µM.

With `O=C(NCC1COc2ccccc2O1)c1cccc(S(=O)(=O)N2CCC(Cc3ccccc3)CC2)c1` (centres undefined), the IC90 was above 10 µM. Further, under setting [1], the IC50 is above 10 µM.

In the case of `CSc1cc(-c2sc3scc(C)c3c2C)n[nH]1`, the concentration for an effect of 90% (IC90) was above 11.8 µM. The IC50 under setting [1] was above 11.8 µM.
